Measured values taken from patent US8163766B2, “Beta-secretase modulators and methods of use” (Amgen Inc., priority 2005, dated 2012).
pIC50: −log10 of the molar value.

The molecules below were run on Aβ 40 in conditioned media of cells stably expressing Amyloid Precursor Protein (APP) (assay: BACE Cell-Based Assay (Aβ40 in conditioned medium, sandwich ELISA)). Details: 24 hours of incubation with the test compounds, Aβ 40 by sandwich ELISA, read-out: IC50 values in the cell-based assay (inhibition of Aβ 40).
Experimental: The cell-based assay measures inhibition or reduction of Aβ40 in conditioned medium of test compound treated cells, which express amyloid precursor protein.
Cells stably expressing Amyloid Precursor Protein (APP) were plated at a density of 40K cells/well in 96 well plates (Costar). The cells were cultivated for 24 h at 37° C. and 5% CO2 in DMEM supplemented with 10% FBS. The test compounds were then added to cells in 10-point dose response concentrations with the starting concentration being either 100 μM or 10 μM. The compounds were diluted from stock solutions in DMSO and the final DMSO concentration of the test compounds on cells was 0.1%. After 24 hours of incubation with the test compounds the supernatant conditioned media was collected and the Aβ 40 levels were determined using a sandwich ELISA. The IC50 of the compound was calculated from the percent of control or percent inhibition of Aβ 40 as a function of the concentration of the test compound.
The sandwich ELISA to detect Aβ 40 was performed in 96 well microtiter plates, which were pre-treated with goat anti-rabbit IgG (Pierce). The capture and detecting antibody pair that were used to detect Aβ 40 from cell supernatants were affinity purified pAb40 (Biosource) and biotinylated 6E10 (Signet Labs Inc.), respectively. The optimal concentration for the pAb40 antibody was 3 μg/ml in Superblock/TBS (Pierce) that was supplemented with 0.05% Tween 20 (Sigma). Optimal concentration for the detection antibody 6E10-biotinylated was […] in Superblock/TBS (Pierce) that had been supplemented with 2% normal goat serum and 2% normal mouse serum.
Cellular supernatants were incubated with the capture antibody for 3 h at 4° C., followed by 3 wash steps in TBS-tween (0.05%). The detecting antibody incubation was for 2 h at 4° C., again followed by the wash steps as described previously. The final readout of the ELISA is Time-Resolved Fluorescence (counts per minute) using Delfia reagents Streptavidin-Europium and Enhancement solutions (Perkin Elmer) and the Victor 2 multilabel counter (Perkin Elmer).

How did the pIC50 turn out when `CCc1ccc2c(c1)[C@@H](NC[C@@H](O)[C@H](Cc1ccccc1)NC(=O)C1CN(C)c3ccccc3O1)CC1(CCCC1)O2` (stereo partly drawn) [Example 48, (S)—N-((2S,3R)-4-((S)-6-ethyl-2,2-spirocyclopentylchroman-4-ylamino)-3-hydroxy-1-phenylbutan-2-yl)-4-methyl-3,4-dihydro-2H-benzo[b][1,4]oxazine-2-carboxamide] was run?
Its pIC50 is at least 5.30.

How did the pIC50 turn out when `CCc1ccc2c(c1)[C@@H](NC[C@@H](O)[C@H](Cc1ccccc1)NC(=O)C1Cc3ccccc3N(C)C1)CC1(CCCC1)O2` (stereo partly drawn) [Example 49, N-((2S,3R)-4-((S)-6-ethyl-2,2-spirocyclopentylchroman-4-ylamino)-3-hydroxy-1-phenylbutan-2-yl)-1-methyl-1,2,3,4-tetrahydroquinoline-3-carboxamide] was run?
The pIC50 was at least 5.30.

With `CCc1ccc2c(c1)[C@@H](NC[C@@H](O)[C@H](Cc1ccccc1)NC(=O)[C@H]1CN(C(C)=O)c3ccccc3O1)CC1(CCCC1)O2` [Example 50, (R)-4-acetyl-N-((2S,3R)-4-((S)-6-ethyl-2,2-spirocyclopentylchroman-4-ylamino)-3-hydroxy-1-phenylbutan-2-yl)-3,4-dihydro-2H-benzo[b][1,4]oxazine-2-carboxamide] as the molecule, how does the pIC50 read?
The pIC50 was at least 5.30.

How did the pIC50 turn out when `CCc1ccc2c(c1)[C@@H](NC[C@@H](O)[C@H](Cc1ccccc1)NC(=O)[C@@H]1CN(C(C)=O)c3ccccc3O1)CC1(CCCC1)O2` [Example 51, (S)-4-acetyl-N-((2S,3R)-4-((S)-6-ethyl-2,2-spirocyclopentylchroman-4-ylamino)-3-hydroxy-1-phenylbutan-2-yl)-3,4-dihydro-2H-benzo[b][1,4]oxazine-2-carboxamide] was run?
The pIC50 was at least 5.30.

With `CCc1ccc2c(c1)[C@@H](NC[C@@H](O)[C@H](Cc1ccccc1)NC(=O)[C@H]1CN(C(=O)OC(C)(C)C)c3ccccc3O1)CC1(CCCC1)O2` [Example 52, (R)-tert-Butyl 2-(((2S,3R)-4-((S)-6-ethyl-2,2-spirocyclopentylchroman-4-ylamino)-3-hydroxy-1-phenylbutan-2-yl)carbamoyl)-2,3-dihydrobenzo[b][1,4]oxazine-4-carboxylate] as the molecule, how does the pIC50 read?
Its pIC50 is at least 5.30.

`CCc1ccc2c(c1)[C@@H](NC[C@@H](O)[C@H](Cc1ccccc1)NC(=O)c1cc(N3CCCC3=O)c(=O)n(C3CCCC3)c1)CC1(CCCC1)O2` [Example 105] was tested. Which pIC50 did it give?
The pIC50 was at least 5.30.

With `CCc1ccc2c(c1)[C@@H](NC[C@@H](O)[C@H](Cc1ccccc1)NC(=O)c1cc(-c3ccccc3F)c(=O)n3c1CCC3)CC1(CCCC1)O2` [Example 107, N-((2S,3R)-4-((8)-6-Ethyl-2,2-spirocyclopentylchroman-4-ylamino)3-hydroxy-1-phenylbutan-2-yl)-6-(2-fluorophenyl)-5-oxo-1,2,3,5-tetrahydroindolizine-8-carboxamide] as the molecule, how does the pIC50 read?
Its pIC50 is at least 5.30.

`CCc1ccc2c(c1)[C@@H](NC[C@@H](O)[C@H](Cc1ccccc1)NC(=O)c1cc(-c3cccc(F)c3)c(=O)n3c1CCC3)CC1(CCCC1)O2` [Example 108, N-((2S,3R)-4-((8)-6-Ethyl-2,2-spirocyclopentylchroman-4-ylamino)3-hydroxy-1-phenylbutan-2-yl)-6-(3-fluorophenyl)-5-oxo-1,2,3,5-tetrahydroindolizine-8-carboxamide] was tested. Which pIC50 did it give?
The pIC50 was at least 5.30.

How did the pIC50 turn out when `O=C(N[C@@H](Cc1ccccc1)[C@H](O)CN[C@H]1CC2(CCCC2)Oc2ccc(F)cc21)c1cc(N2CCCC2=O)c(=O)n(C2CCCC2)c1` [Example 110] was run?
The pIC50 was at least 5.30.

How did the pIC50 turn out when `O=C(N[C@@H](Cc1ccccc1)[C@H](O)CN[C@H]1CC2(CCCC2)Oc2c(F)cc(F)cc21)c1cc(N2CCCC2=O)c(=O)n(C2CCCC2)c1` [Example 111] was run?
Its pIC50 is at least 5.30.

How did the pIC50 turn out when `CCc1ccc2c(c1)[C@@H](NC[C@@H](O)[C@H](Cc1ccccc1)NC(=O)c1cc(N3CCCC3=O)c(=O)n(C3CCCC3)c1)CC1(CCC1)O2` [Example 116] was run?
Its pIC50 is at least 5.30.

How did the pIC50 turn out when `CCc1ccc2c(c1)[C@@H](NC[C@@H](O)[C@H](Cc1ccccc1)NC(=O)c1ccc(=O)n(C3CCCC3)c1)CC1(CCC1)O2` [Example 117] was run?
The pIC50 was at least 5.30.

How did the pIC50 turn out when `CCc1ccc2c(c1)[C@@H](NC[C@@H](O)[C@H](Cc1ccccc1)NC(=O)c1ccc(=O)n(CC(C)C)c1)CC1(CCC1)O2` [Example 118] was run?
Its pIC50 is at least 5.30.

With `CCc1ccc2c(c1)[C@@H](NC[C@@H](O)[C@H](Cc1ccccc1)NC(=O)c1ccc(=O)n(CC(F)(F)F)c1)CC1(CCC1)O2` [Example 119] as the molecule, how does the pIC50 read?
The pIC50 was at least 5.30.

How did the pIC50 turn out when `CCc1ccc2c(c1)[C@@H](NC[C@@H](O)[C@H](Cc1ccccc1)NC(=O)c1ccc(=O)n(-c3ccccc3)c1)CC1(CCC1)O2` [Example 120] was run?
Its pIC50 is at least 5.30.

`O=C(N[C@@H](Cc1ccccc1)[C@H](O)CN[C@H]1CC2(CCCC2)Oc2ccc(Br)cc21)c1cc(N2CCCC2=O)c(=O)n(C2CCCC2)c1` [Example 121] was tested. Which pIC50 did it give?
Its pIC50 is at least 5.30.

How did the pIC50 turn out when `O=C(N[C@@H](Cc1ccccc1)[C@H](O)CN[C@H]1CC2(CCCC2)Oc2ccc(Br)cc21)c1ccc(=O)n(C2CCCC2)c1` [Example 122] was run?
The pIC50 was at least 5.30.

`CC(C)Cn1cc(C(=O)N[C@@H](Cc2ccccc2)[C@H](O)CN[C@H]2CC3(CCCC3)Oc3ccc(Br)cc32)ccc1=O` [Example 123] was tested. Which pIC50 did it give?
Its pIC50 is at least 5.30.

With `CC(C)(C)Cc1ccc2c(c1)[C@@H](NC[C@@H](O)[C@H](Cc1ccccc1)NC(=O)c1cc(N3CCCC3=O)c(=O)n(C3CCCC3)c1)CC1(CCCC1)O2` [Example 124] as the molecule, how does the pIC50 read?
The pIC50 was at least 5.30.

With `CC(C)(C)Cc1ccc2c(c1)[C@@H](NC[C@@H](O)[C@H](Cc1ccccc1)NC(=O)c1ccc(=O)n(C3CCCC3)c1)CC1(CCCC1)O2` [Example 125] as the molecule, how does the pIC50 read?
Its pIC50 is at least 5.30.

How did the pIC50 turn out when `CCc1ccc2c(c1)[C@@H](NC[C@@H](O)[C@H](Cc1ccccc1)NC(=O)c1cc(-c3ccccc3F)c(=O)n3c1CCC3)CC1(CCC1)O2` [Example 126, N-((2S,3R)-4-((S)-6-Ethyl-2,2-spirocyclobutylchroman-4-ylamino)3-hydroxy-1-phenylbutan-2-yl)-6-(2-fluorophenyl)-5-oxo-1,2,3,5-tetrahydroindolizine-8-carboxamide] was run?
Its pIC50 is at least 5.30.

`CCc1ccc2c(c1)[C@@H](NC[C@@H](O)[C@H](Cc1ccccc1)NC(=O)c1cc(N3CCCC3=O)c(=O)n(C3CCCC3)c1)CC1(CCCCC1)O2` [Example 128, 1-cyclopentyl-N-((2S,3R)-4-((8)-6-ethyl-2,2-spirocyclohexyl-chroman-4-ylamino)-3-hydroxy-1-phenylbutan-2-yl)-6-oxo-5-(2-oxopyrrolidin-1-yl)-1,6-dihydropyridine-3-carboxamide] was tested. Which pIC50 did it give?
The pIC50 was at least 5.30.

How did the pIC50 turn out when `CCc1ccc2c(c1)[C@@H](NC[C@@H](O)[C@H](Cc1ccccc1)NC(=O)c1ccc(=O)n(C3CCCCC3)c1)CC1(CCCCC1)O2` [Example 129, 1-cyclohexyl-N-((2S,3R)-4-((S)-6-ethyl-2,2-spirocyclohexyl-chroman-4-ylamino)-3-hydroxy-1-phenylbutan-2-yl)-6-oxo-1,6-dihydropyridine-3-carboxamide] was run?
Its pIC50 is at least 5.30.

`CCc1ccc2c(c1)[C@@H](NC[C@@H](O)[C@H](Cc1ccccc1)NC(=O)c1cc(N3CCCC3=O)c(=O)n(C3CCCC3)c1)CC1(CCCCCC1)O2` [Example 130, 1-cyclopentyl-N-((2S,3R)-4-((S)-6-ethyl-2,2-spirocycloheptyl-chroman-4-ylamino)-3-hydroxy-1-phenylbutan-2-yl)-6-oxo-5-(2-oxopyrrolidin-1-yl)-1,6-dihydropyridine-3-carboxamide] was tested. Which pIC50 did it give?
The pIC50 was at least 5.30.
